Patent publication US20240217989A1, “Heteroaryl Fluoroalkenes As DGK Inhibitors” (Incyte Corporation, priority 2022, published 2024)

How the values were obtained:
[1] = target: T1, DGKα (Homo sapiens, UniProt P23743); test: In vitro DGKα inhibition assay (ADP-Glo); type: biochemical; conditions: His-tagged human recombinant enzyme; 0.1 nM DGKα, 50 μM ATP, 20 μM DLG; 90 minute incubation; ADP-Glo luminescence
T1 construct: His; purchased Signal Chem D21-10BH
Method: (§1) The DGKα and DGKζ biochemical reactions were performed using His-tagged human recombinant enzymes (Signal Chem, DGKα, #D21-10BH; DGKζ, #D30-10H)) and DLG (Dilauroyl-sn-glycerol) lipid substrate (Signal Chem, #D430-59). ADP-Glo assay was performed using ADP-Glo™ kinase Assay kit (Promega, #V9104). The reactions were carried out in assay buffer containing 40 mM Tris, pH 7.5, 0.1% CHAPS, 0.1% Prionex, 40 mM NaCl, 5 mM MgCl2, 1 mM CaCl2, and 1 mM DTT. DGKα reactions contained 0.1 nM DGKα, 50 μM ATP, and 20 μM DLG. And DGKζ reactions contained 0.4 nM DGKζ, 30 μM ATP, and 20 μM DLG. For compound inhibition studies, 40 nL test compound in DMSO was added to wells of white polystyrene plates in 384-well (Greiner, #784075) or 1536-well format (Greiner, #782075). Compounds were added with top concentration of 2 mM with 11 point, 3-fold dilution series. Enzyme solution (contains 2× DGK enzyme concentration in 1× assay buffer) was added to the plate in 2 μL/well volume, followed by 2 μL/well of substrate solution (contains 2× concentration of ATP and DLG substrate in 1× assay buffer). Plates were then centrifuged for 1 min at 1200 RPM and sealed or lidded. For 4 μL reaction volume, test compounds were therefore diluted 100× to final top concentration of 20 μM. After 90 minute incubation, reactions were quenched by addition of 2 μL/well Promega ADP-Glo Reagent, followed by centrifugation and lidding. After 60 min incubation, 2 μL/well Promega Kinase Detection Reagent was added, plates centrifuged, and incubated for 30 min. Plates were then read using Luminescence method on BMG PHERAstar FSX plate reader. Percent inhibition was calculated and IC50s were determined using 4-parameter fit in Genedata Screener. Labcyte Echo acoustic dispenser was used for compound addition, and Formulatrix Tempest liquid handler was used for all reagent dispenses.

[2] = target: DGKζ (Homo sapiens, UniProt Q13574); test: In vitro DGKζ inhibition assay (ADP-Glo); type: biochemical; conditions: His-tagged human recombinant enzyme; 0.4 nM DGKζ, 30 μM ATP, 20 μM DLG; 90 minute incubation; ADP-Glo luminescence
Method: as §1

T1 sequence (P23743 whole entry): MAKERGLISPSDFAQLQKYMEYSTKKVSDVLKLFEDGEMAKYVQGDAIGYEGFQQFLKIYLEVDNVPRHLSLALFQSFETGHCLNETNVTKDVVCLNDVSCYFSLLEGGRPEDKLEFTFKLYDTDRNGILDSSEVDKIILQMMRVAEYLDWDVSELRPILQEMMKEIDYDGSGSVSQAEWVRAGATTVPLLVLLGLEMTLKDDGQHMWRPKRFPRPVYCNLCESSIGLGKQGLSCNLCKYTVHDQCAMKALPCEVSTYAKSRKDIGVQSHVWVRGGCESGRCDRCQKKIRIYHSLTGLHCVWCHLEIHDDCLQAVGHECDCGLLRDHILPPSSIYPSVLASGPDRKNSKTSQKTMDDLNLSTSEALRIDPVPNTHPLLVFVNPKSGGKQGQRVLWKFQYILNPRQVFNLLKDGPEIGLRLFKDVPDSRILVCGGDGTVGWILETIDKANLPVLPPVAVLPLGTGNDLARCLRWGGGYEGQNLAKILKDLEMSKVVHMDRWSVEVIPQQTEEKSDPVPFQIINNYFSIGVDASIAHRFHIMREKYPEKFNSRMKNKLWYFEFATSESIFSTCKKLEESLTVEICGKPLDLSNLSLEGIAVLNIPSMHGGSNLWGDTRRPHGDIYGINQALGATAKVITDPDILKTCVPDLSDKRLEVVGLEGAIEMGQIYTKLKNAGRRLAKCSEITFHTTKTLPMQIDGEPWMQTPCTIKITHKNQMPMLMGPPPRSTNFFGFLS
DGKζ, sequence (Q13574 whole entry): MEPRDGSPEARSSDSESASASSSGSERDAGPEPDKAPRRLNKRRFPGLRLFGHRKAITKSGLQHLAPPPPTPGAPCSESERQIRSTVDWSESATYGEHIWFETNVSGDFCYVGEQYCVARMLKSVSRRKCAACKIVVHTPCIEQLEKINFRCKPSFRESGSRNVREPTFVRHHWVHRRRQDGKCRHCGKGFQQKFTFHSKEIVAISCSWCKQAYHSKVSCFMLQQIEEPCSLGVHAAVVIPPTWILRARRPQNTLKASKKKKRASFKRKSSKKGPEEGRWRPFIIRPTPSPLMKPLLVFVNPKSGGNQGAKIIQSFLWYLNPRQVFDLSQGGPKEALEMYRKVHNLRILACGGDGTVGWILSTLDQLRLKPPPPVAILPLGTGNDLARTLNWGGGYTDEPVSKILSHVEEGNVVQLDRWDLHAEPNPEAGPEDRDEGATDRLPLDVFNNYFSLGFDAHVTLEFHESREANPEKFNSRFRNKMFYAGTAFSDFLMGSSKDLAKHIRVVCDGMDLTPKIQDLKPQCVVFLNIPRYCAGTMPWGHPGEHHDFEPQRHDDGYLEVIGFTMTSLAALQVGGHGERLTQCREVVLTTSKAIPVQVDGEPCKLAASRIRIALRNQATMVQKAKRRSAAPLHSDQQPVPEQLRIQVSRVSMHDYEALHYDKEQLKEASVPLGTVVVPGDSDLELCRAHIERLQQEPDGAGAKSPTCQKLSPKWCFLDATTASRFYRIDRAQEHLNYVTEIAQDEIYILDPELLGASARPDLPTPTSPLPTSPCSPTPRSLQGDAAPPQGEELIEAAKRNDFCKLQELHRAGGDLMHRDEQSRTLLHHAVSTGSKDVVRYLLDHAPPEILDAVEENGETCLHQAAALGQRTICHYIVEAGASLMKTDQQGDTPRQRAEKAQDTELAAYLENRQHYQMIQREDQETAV

`NC[C@H]1CCCN1c1c(/C=C(\F)c2nccc(-c3ccnnc3)n2)ccc(Oc2ccccc2)c1Cl` [Example 13, (R,Z)-(1-(2-Chloro-6-(2-fluoro-2-(4-(pyridazin-4-yl)pyrimidin-2-yl)vinyl)-3-phenoxyphenyl)pyrrolidin-2-yl)methanamine] gave an IC50 [1] of at most 20 nM and an IC50 [2] of at most 20 nM.
For `NC[C@@H]1CCCN(c2c(/C=C(\F)c3nccc(-c4ccnnc4)n3)ccc(Oc3ccccc3)c2C(F)(F)F)C1` [Example 43, (S,Z)-(1-(6-(2-Fluoro-2-(4-(pyridazin-4-yl)pyrimidin-2-yl)vinyl)-3-phenoxy-2-(trifluoromethyl)phenyl)piperidin-3-yl)methanamine], the IC50 [1] was at most 20 nM and the IC50 [2] was at most 20 nM.
With `COCCN1CCC2(CC1)CN(c1c(/C=C(\F)c3nccc(-c4ccnnc4)n3)ccc(Oc3ccccc3)c1C(F)(F)F)CCO2` [Example 25, (Z)-4-(6-(2-Fluoro-2-(4-(pyridazin-4-yl)pyrimidin-2-yl)vinyl)-3-phenoxy-2-(trifluoromethyl)phenyl)-9-(2-methoxyethyl)-1-oxa-4,9-diazaspiro[5.5]undecane] the IC50 [1] was at most 20 nM and the IC50 [2] was at most 20 nM.
`F/C(=C\c1ccc(Oc2ccccc2)c(C(F)(F)F)c1N1CCOC2(CCN(CC3CC3)CC2)C1)c1cncc(-c2ccnnc2)n1` [Example 10, (Z)-9-(Cyclopropylmethyl)-4-(6-(2-fluoro-2-(6-(pyridazin-4-yl)pyrazin-2-yl)vinyl)-3-phenoxy-2-(trifluoromethyl)phenyl)-1-oxa-4,9-diazaspiro[5.5]undecane] showed an IC50 [1] of at most 20 nM and an IC50 [2] of at most 20 nM.
In the case of `CCN1CCC2(CC1)CN(c1c(/C=C(\F)c3cncc(-c4ccnnc4)n3)ccc(Oc3ccccc3F)c1C(F)(F)F)CCO2` [Example 35, (Z)-9-Ethyl-4-(6-(2-fluoro-2-(6-(pyridazin-4-yl)pyrazin-2-yl)vinyl)-3-(2-fluorophenoxy)-2-(trifluoromethyl)phenyl)-1-oxa-4,9-diazaspiro[5.5]undecane], the IC50 [1] is reported as at most 20 nM and the IC50 [2] is reported as at most 20 nM.
Work on `CCN1CCC2(CCCN(c3c(/C=C(\F)c4cncc(N5CCC(F)(F)C5)n4)ccc(Oc4ccccc4)c3C(F)(F)F)C2)CC1` [Example 20, (Z)-2-(6-(2-(6-(3,3-Difluoropyrrolidin-1-yl)pyrazin-2-yl)-2-fluorovinyl)-3-phenoxy-2-(trifluoromethyl)phenyl)-9-ethyl-2,9-diazaspiro[5.5]undecane] yielded an IC50 [1] of at most 20 nM and an IC50 [2] of at most 20 nM.
With `[2H]c1c([2H])c([2H])c(Oc2ccc(/C=C(\F)c3cncc(N4CC(F)(F)C4)n3)c(N3CCCC4(CCN(CC5CC5)CC4)C3)c2C(F)(F)F)c([2H])c1[2H]` [Example 17, (Z)-9-(Cyclopropylmethyl)-2-(6-(2-(6-(3,3-difluoroazetidin-1-yl)pyrazin-2-yl)-2-fluorovinyl)-3-(phenoxy-d5)-2-(trifluoromethyl)phenyl)-2,9-diazaspiro[5.5]undecane] the IC50 [1] was at most 20 nM and the IC50 [2] was at most 20 nM.
`CCN1CCC2(CCCN(c3c(/C=C(\F)c4cncc(N5CC(F)(F)C5)n4)ccc(Oc4ccccc4F)c3C(F)(F)F)C2)CC1` [Example 44, (Z)-2-(6-(2-(6-(3,3-Difluoroazetidin-1-yl)pyrazin-2-yl)-2-fluorovinyl)-3-(2-fluorophenoxy)-2-(trifluoromethyl)phenyl)-9-ethyl-2,9-diazaspiro[5.5]undecane] showed an IC50 [1] of at most 20 nM and an IC50 [2] of at most 20 nM.
Work on `NC[C@@H]1CCCN(c2c(/C=C(\F)c3cncc(-c4ccns4)n3)ccc(Oc3ccccc3F)c2C(F)(F)F)C1` [Example 4, (S,Z)-(1-(6-(2-Fluoro-2-(6-(isothiazol-5-yl)pyrazin-2-yl)vinyl)-3-(2-fluorophenoxy)-2-(trifluoromethyl)phenyl)piperidin-3-yl)methanamine] yielded an IC50 [2] of at most 20 nM.
With `NC[C@H]1CCCN1c1c(/C=C(\F)c2cncc(-c3ccnnc3)n2)ccc(Oc2ccccc2)c1Cl` [Example 12, (R,Z)-(1-(2-Chloro-6-(2-fluoro-2-(6-(pyridazin-4-yl)pyrazin-2-yl)vinyl)-3-phenoxyphenyl)pyrrolidin-2-yl)methanamine] the IC50 [2] was at most 20 nM.
